{"source": "paper PMC12627232", "about": "(MedComm, 2025)", "key": {"B16F10 syngeneic model": {"system": "B16F10 syngeneic model", "assay": "B16F10 syngeneic model", "assay_type": "in vivo", "conditions": "C57BL/6J mice, HDAC inhibitors by oral gavage, anti-PD-L1 intraperitoneal, 7-day treatment", "method": "With the approval of the ethics committee of Shandong University, C57BL/6J mice were purchased from Charles River and fed in SPF conditions at the Model Animal Research Centre of Shandong University. To establish the B16F10 syngeneic model, cells in logarithmic growth phase were trypsinized with 0.25% trypsin, resuspended in sterile PBS, and adjusted to 1 × 10^6 cells/100 µL. The cell suspension (100 µL) was subcutaneously injected into the left axilla. When tumors reached to certain volume, mice were randomized (n = 5/group) and treated with Chidamide, LBH‐589, or SDFZ‐8 by oral gavage and intraperitoneal injection of anti‐PD‐L1. Tumor growth curves were plotted over a 7‐day treatment cycle. All procedures complied with AAALAC International guidelines for humane endpoint criteria."}, "MC38 syngeneic model": {"system": "MC38 syngeneic model", "assay": "MC38 syngeneic model", "assay_type": "in vivo", "conditions": "C57BL/6J mice, SDFZ-8 60 mg/kg qd i.g., 14-day treatment", "method": "C57BL/6J mice were obtained from HFK Bioscience (Beijing, China) and fed in laminar flow cabinets under SPF conditions. With the approval of the ethics committee of Shandong University, the animal experiments were conducted. […]. By the time tumors reached certain volumes, SDFZ‐8 treatment (SDFZ‐8 in PBS solution containing 5% DMSO, 60 mg/kg, qd, i.g.) was started, with five animals per treatment group. Body weight and tumor size were measured every day during the 14‐day treatment."}, "HDAC3/NCOR1 complex": {"system": "HDAC3/NCOR1 complex", "assay": "HDACs enzymatic assay HDAC3", "assay_type": "biochemical", "conditions": "Class I; mean ± SD of three", "method": "HDACs enzymatic assays were conducted according to our previous work. […] Substrates (Boc‐Lys(acetyl)‐AMC for HeLa nuclear extract, Ac‐Leu‐Gly‐Lys (Tfa)‐AMC for HDAC4, HDAC5, HDAC6, HDAC7, HDAC9, HDAC10, and HDAC11, Boc‐Lys(triflouroacetyl)‐AMC for HDAC8 and Ac‐Leu‐Gly‐Lys(acetyl)‐AMC for HDAC1, HDAC2, HDAC3) were added to the mixture. The blank group was set to no enzyme or drug but contains substrates and the control group was set to no drug but contains substrates and enzymes to each 96‐well plate. After 30 min of incubation at 37°C, the mixture was terminated with 1 mg/mL trypsin and 3 µM TSA. After another 30 min, the fluorescence intensity was measured using a Varioskan plate reader at 360/460 nm. […] The inhibition curves and IC50 values were simulated and calculated using the log(inhibitor) versus response (three parameters) mode in GraphPad Prism software."}, "MDA-MB-231 cells": {"system": "MDA-MB-231 cells", "assay": "Western blotting (immunoblotting)", "assay_type": "cell-based, human", "conditions": "24 h, western blotting", "description": "Anti‐H3 (#13998), anticleaved Caspase‐3 (#9661) and anti‐PARP (#9542) antibody was purchased from Cell Signal Technology (CST). Anti‐Caspase‐3 (T40044) was brought from Abmart. Antitubulin antibody (ab179484) was obtained from Abcam PLC. Anti‐Bcl‐2 (F0125) and anti‐Bax (F0037) antibody were purchased from Selleck Chemicals. Anti‐GAPDH antibody (AF1186) was obtained from Beyotime Inc. The protocol of Western blotting was the same as our previous works. In brief, 2.5 × 10^5 MDA‐MB‐231 cells were treated with different drugs or DMSO (equal volume to experimental groups) for 24 h and lysed with modified RIPA buffer. The cell lysates were added to loading buffer (Beyotime #P0015L) and heated in boiling water for 5 mins and then, together with biomarker (Epizymebiotech; 15–250 kDa), were electrophoresed in SDS‐PAGE gels under 80 V voltage until the biomarker reached the end of gels. Next, SDS‐PAGE gels and PVDF membrane were clipped together to perform transmembrane procedure under 350 mA currency for 1 h. Then after incubation with 5% skim milk, TBST, primary antibody and secondary antibody, the PVDF membrane was treated with ECL chemiluminescence solution (Boster Biological Technology #AR1174) and imaged by the imager (Imager 680 Amersham Imager)."}, "MDA-MB-231 xenograft": {"system": "MDA-MB-231 xenograft", "assay": "MDA-MB-231 xenograft model", "assay_type": "in vivo, BALB/c-nu mice", "conditions": "MDA-MB-231 xenograft, BALB/c-nu mice, 60 mg/kg/day oral gavage, 22 days", "method": "BALB/c‐nu mice were obtained from Pengyue Co. Ltd. (Jinan, China) and were fed in laminar flow cabinets under specific pathogen‐free (SPF) conditions. With the approval of ethics committee of Shandong University, the animal experiments were conducted. To establish the MDA‐MB‐231 xenograft model, BALB/c‐nu mice (3–4 weeks old and 15–18 g body weight, male) were selected and injected subcutaneously into the armpits with 1.2 × 10^7 MDA‐MB‐231 cells. […] Body weight and tumor size were measured every 3 days during the 22‐day treatment."}, "[1]": {"system": "immune cells of MC38 syngeneic model", "assay": "Flow cytometry of tumor-infiltrating and spleen immune cells, MC38 model", "assay_type": "in vivo, C57BL/6J mice", "method": "After 14 days, the tumors and spleens were split, and cells were isolated to analyze the change in cancer immunity. For TILs, the tumors were incubated with the tumor digestion fluid (collagenase and hyaluronic acid included) and then filtered with a 200‐gauge mesh and centrifuged (100×g, 1 min). The supernatant was centrifuged (400×g, 5 min) and precipitated cells were purified by 40% percoll solution followed by RBC lysis and washing. For splenocytes, the spleen was passed through a 200‐gauge mesh, and splenocytes were collected after RBC lysis and washing.\nThe prepared cell suspensions were incubated with rat serum at room temperature for 30 min to block the FC‐receptor and incubated with fluorescent antibodies at 4°C for 1 h. For Foxp3 staining, Foxp3/Transcription Factor Staining Buffer Set (eBioscience; #00‐5523‐00) was used. For intracellular cytokines staining, cells were pre‐stimulated with 1 µg/mL ionomycin (Beyotime; #S1672), 50 ng/mL PMA (Sigma; #P1585) and Brefeldin A (BioLegend; #420601) for 4 h. Flow cytometry was conducted with FACS Celesta (BD Biosciences, USA) and analyzed with FlowJo software."}}, "data": [{"compound": "Nc1cc(F)ccc1NC(=O)c1ccc(CNC(=O)/C=C/c2cccnc2)cc1", "note": "[Chidamide, reference compound]", "values": [{"measurement": "TGI", "setting": "B16F10 syngeneic model", "result": 58, "unit": "%"}]}, {"compound": "Cc1[nH]c2ccccc2c1CCNCc1ccc(/C=C/C(=O)NO)cc1", "note": "[LBH-589, reference compound]", "values": [{"measurement": "TGI", "setting": "B16F10 syngeneic model", "result": 53, "unit": "%"}]}, {"compound": "O=C(CCCCCCC(=O)Nc1ccccc1)NO", "note": "[SAHA, Vorinostat, reference compound]", "values": [{"measurement": "TGI", "setting": "MC38 syngeneic model", "result": 50, "unit": "%"}, {"measurement": "IC50", "setting": "HDAC3/NCOR1 complex", "result": "45 ± 20", "unit": "nM"}, {"measurement": "level of acetylated histone H3 (Ac-H3)", "setting": "MDA-MB-231 cells", "result": "upregulation"}, {"measurement": "level of acetylated tubulin (Ac-tubulin)", "setting": "MDA-MB-231 cells", "result": "upregulation"}, {"measurement": "TGI", "setting": "MDA-MB-231 xenograft", "result": 60, "unit": "%"}, {"measurement": "PD-L1 and PD-1 expression in tumor-infiltrating immune cells", "setting": "[1]", "result": "upregulated"}, {"measurement": "surface expression of MHC class II in DCs and macrophages", "setting": "[1]", "result": "only impacted MHC II in DCs"}, {"measurement": "M2 polarization of TAMs", "setting": "[1]; CD206 marker", "result": "suppressed"}, {"measurement": "M1 polarization of TAMs", "setting": "[1]; iNOS marker", "result": "robustly promoted"}, {"measurement": "PD-1 expression in spleen CD4+ T cells and NK cells", "setting": "[1]; spleen", "result": "downregulated"}, {"measurement": "PD-L1 expression in spleen DCs and macrophages", "setting": "[1]; spleen", "result": "upregulated"}, {"measurement": "proportion of CD4+ T cells, CD8+ T cells and NK cells in the spleen", "setting": "[1]; spleen", "result": "did not induce such effects"}, {"measurement": "expression of IFN-γ and TNF-α in CD4+ T cells and CD8+ T cells", "setting": "[1]; tumor", "result": "upregulation"}]}, {"compound": "atezolizumab [anti-PD-L1]", "values": [{"measurement": "TGI", "setting": "B16F10 syngeneic model", "result": 62, "unit": "%"}]}]}
